Assay results from US20030144148A1, “Method for plant-protection treatment by leaf absorption, using a combination between an active ingredient and a modified oil and novel combination for using said method” (SOCIETE D'EXPLOITATION DE PRODUITS POUR LES INDUSTRIES …, priority 1998, published 2003).

What was measured:
[1] = system: barley (Hordeum vulgare) leaves; assay: Leaf penetration of 2,4-D, alone or in combination with modified oils; type: in vivo; settings: percentage of 2,4-D penetrated into barley leaf
Protocol: (§1) Ten drops are applied to the adaxial surface of the first leaf. After 0, 4, 6, 24 or 72 hours, the product which has not penetrated is washed with 0.5 ml of acetone and the radioactivity measured by liquid scintillation. The radioactivity present in the treated leaf in the rest of the plant is determined in the carbon dioxide obtained after burning the tissue.
The penetration into barley (Hordeum vulgare) leaves, of 2,4-D or (2,4-dichlorophenoxy) acetic acid, which is a herbicide with a highly dissociated carboxylic acid function, alone or in combination with modified oils, was compared according to the procedure described in the preceding paragraph.

[2] = system: barley (Hordeum vulgare) leaves; assay: Leaf penetration of carbon-14 labeled phenmedipham, alone or in combination with modified oils; type: in vivo; set-up: dose or concentration left out as unconfirmed; settings: percentage of phenmedipham penetrated into barley leaf, 72 hours after application in acetone
Protocol: as §1

| Compound | LEAF PENETRATION AT: 24 HOURS ([1]; 24 hours after application) [%] | LEAF PENETRATION AT: 72 HOURS ([1]; 72 hours after application) [%] | LEAF PENETRATION AT: 72 HOURS [2] [%] |
| --- | --- | --- | --- |
| O=C(O)COc1ccc(Cl)cc1Cl [2,4-D ALONE, (2,4-dichlorophenoxy) acetic acid] | 10 | 15 | – |
| COC(=O)Nc1cccc(OC(=O)Nc2cccc(C)c2)c1 [PH[…], 3-[(methoxycarbonyl)amino] phenyl (3-methylphenyl)-carbamate] | – | – | <10 |
